Measured values published in US20050148523A1, “Method of treating HIV infection in atazanavir-resistant patients using a combination of atazanavir and another protease inhibitor” (priority 2003, published 2005).

Legend:
HIV-1 protease = HIV-1 protease (Human immunodeficiency virus type 1 group M subtype B, UniProt P04585); conditions: cited from earlier work
[1] = test system: clinical isolates containing an I50V; assay: PhenoSense phenotypic susceptibility of clinical isolates containing I50V; assay type: cell-based, HIV-1
Excerpt: (§1) Drug Susceptibility Assays. Clinical isolates were subjected to phenotypic (PhenoSense™) and genotypic (GeneSeq™) analysis by Virologic, Inc. as described elsewhere.
Because an I50V substitution is a signature mutation sometimes associated with APV resistance, the cross-resistance relationship between ATV and APV was further examined.

NL4-3 reference strain = assay: PhenoSense phenotypic drug susceptibility assay, reference strain; assay type: cell-based, HIV-1; conditions: Human immunodeficiency virus 1, NL43; over the several months of sample testing; read-out: IC50 measured for the NL4-3 reference strain
Description: Drug Susceptibility Assays. Clinical isolates were subjected to phenotypic (PhenoSense™) and genotypic (GeneSeq™) analysis by Virologic, Inc. as described elsewhere. Over the time period (several months) in which the samples reported here were tested, the ATV IC50 measured for the NL4-3 reference strain ranged from 0.9-2.0 nM. The success rate in obtaining phenotype and genotype results from patients experiencing virologic failure ranged from 30 to 50%, largely because of low HIV RNA levels (the assays used required levels of >=500 c/mL), insufficient sample volume, or no sample was available.

[2] = test system: clinical isolates containing a D30N substitution; assay: PhenoSense phenotypic susceptibility of clinical isolates containing D30N; assay type: cell-based, HIV-1; conditions: 75 D30N containing isolates, FIG. 3
Description: as §1
Comparative Studies of I50L and D30N Containing Viruses. […] Comparative studies were performed on the 18 phenotyped viruses containing an I50L and 75 clinical isolates containing a D30N substitution without evidence of cross-resistance (FC≧2.5) to other PIs.

[3] = test system: HIV-1 in treatment naive patients; assay: Clinical study AI424-007/041, virological outcomes and resistance; assay type: in vivo, human; conditions: study 007/041
Excerpt: (§2) Study Population. Viral samples (baseline and on-treatment, where available) were obtained from patients who experienced virologic failure while enrolled in studies AI424-007/041 [12] (ATV+d4T and ddI), AI424-008/044 [13, 14] (ATV+d4T and 3TC) and AI424-034 [9] (ATV or EFV in combination with ZDV and 3TC). […] In general, virologic failure specimens were selected for further resistance evaluation only if they contained >1,000 copies/mL HIV-1 RNA and there was no indication that the specimen came from a patient at a time of transient non-adherence to study drug(s). […] For non-responders, samples from week 16 (or 24) were tested. Drug adherence was determined from pill counts of returned study medications at each scheduled visit.
(§3) ATV resistance was defined as ≧2-fold decrease in ATV susceptibility from baseline, a Fold Change (FC) of ≧2.5 (relative to the Nl4-3 reference strain), or evidence of an isoleucine (Ile) to leucine (Leu) change at amino acid residue 50 (I50L). Resistance levels for NFV and EFV were also defined as a FC reaching 2.5.

[4] = test system: HIV-1 in treatment naive patients on ATV containing regimens; assay: Pooled resistance analysis of studies AI424-007/041, 008/044 and 034; assay type: in vivo, human; conditions: patients with I50L, N=10
Excerpt: as §2, §3

**Q.** Which Ki (HIV-1 protease) does the source give for `COC(=O)N[C@H](C(=O)N[C@@H](Cc1ccccc1)[C@@H](O)CN(Cc1ccc(-c2ccccn2)cc1)NC(=O)[C@@H](NC(=O)OC)C(C)(C)C)C(C)(C)C` [ATV, atazanavir] here?
**A.** < 1 nM

**Q.** And the “number of the eight isolates with FC less than 1.0” value ([1]; 8 I50V isolates resistant to APV)?
**A.** Seven

**Q.** What about the “Susceptibility, Fold Change in EC50 relative to reference strain” value ([1]; Isolate with I50V 1) of the same compound?
**A.** 0.3 Fold Change

**Q.** What about the “Susceptibility, Fold Change in EC50 relative to reference strain” value ([1]; Isolate with I50V 2) of the same compound?
**A.** 0.4 Fold Change

**Q.** What about the “Susceptibility, Fold Change in EC50 relative to reference strain” value ([1]; Isolate with I50V 3) of the same compound?
**A.** 0.6 Fold Change

**Q.** What about the “Susceptibility, Fold Change in EC50 relative to reference strain” value ([1]; Isolate with I50V 4) of the same compound?
**A.** 1.2 Fold Change

**Q.** And the “Susceptibility, Fold Change in EC50 relative to reference strain” value ([1]; Isolate with I50V 5)?
**A.** 0.4 Fold Change

**Q.** What about the “Susceptibility, Fold Change in EC50 relative to reference strain” value ([1]; Isolate with I50V 6) of the same compound?
**A.** 0.8 Fold Change

**Q.** What about the “Susceptibility, Fold Change in EC50 relative to reference strain” value ([1]; Isolate with I50V 7) of the same compound?
**A.** 0.5 Fold Change

**Q.** What about the “Susceptibility, Fold Change in EC50 relative to reference strain” value ([1]; Isolate with I50V 8) of the same compound?
**A.** 0.5 Fold Change

**Q.** What about the “number of the eight isolates with FC of 0.4 or less” value ([1]; {}) of the same compound?
**A.** 3

**Q.** What about the IC50 (NL4-3 reference strain) of the same compound?
**A.** 0.9 to 2 nM

**Q.** And the “median FC” value [2]?
**A.** small median decreases in susceptibility

**Q.** What about the “Virologic Failures (%)” value [3] of the same compound?
**A.** 21%

**Q.** What about the “Virologic Failures, number” value [3] of the same compound?
**A.** 51

**Q.** What about the “mean time to virologic failure” value [4] of the same compound?
**A.** 50 weeks
